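Dose response: 5 concentrations. Exposure: 48 h. Format: 96-well plates. Endpoint: linear interpolation; highest concentration if not reached. GI50 is the concentration that inhibits growth by half. At the TGI there is no net growth.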
Legend:
Test in all cases: NCI tumour cell line growth inhibition, 48 h
SNB-19 CNS = test system: SNB-19 CNS
OVCAR-8 ovarian = test system: OVCAR-8 ovarian
786-0 renal = test system: 786-0 renal
K-562 leukemia = test system: K-562 leukemia
SK-OV-3 ovarian = test system: SK-OV-3 ovarian
HCT-15 colon = test system: HCT-15 colon
U251 CNS = test system: U251 CNS
OVCAR-4 ovarian = test system: OVCAR-4 ovarian
SF-539 CNS = test system: SF-539 CNS
A549 NSCLC = test system: A549 NSCLC
A498 renal = test system: A498 renal
KM12 colon = test system: KM12 colon
M14 melanoma = test system: M14 melanoma
COLO 205 colon = test system: COLO 205 colon
HCT-116 colon = test system: HCT-116 colon
SW-620 colon = test system: SW-620 colon
HOP-92 NSCLC = test system: HOP-92 NSCLC
MALME-3M melanoma = test system: MALME-3M melanoma
ACHN renal = test system: ACHN renal
NCI-H522 lung = test system: NCI-H522 lung
OVCAR-3 ovarian = test system: OVCAR-3 ovarian
NCI/ADR-RES ovarian = test system: NCI/ADR-RES ovarian
SK-MEL-28 melanoma = test system: SK-MEL-28 melanoma
RPMI-8226 leukemia = test system: RPMI-8226 leukemia
CCRF-CEM leukemia = test system: CCRF-CEM leukemia
T-47D breast = test system: T-47D breast
SK-MEL-5 melanoma = test system: SK-MEL-5 melanoma
CAKI-1 renal = test system: CAKI-1 renal
IGROV1 ovarian = test system: IGROV1 ovarian

In the case of `O=C1/C=C/[C@@H](O)[C@@H]2C[C@@H](O)C[C@H]2/C=C/CCC[C@H](CCc2ccccc2)O1`, the GI50 (SNB-19 CNS) is reported as 51.4 nM, the TGI (SNB-19 CNS) is reported as > 88100 nM and the GI50 (OVCAR-8 ovarian) is reported as 29.4 nM. For the same compound, the TGI (OVCAR-8 ovarian) was 12700 nM, the GI50 (786-0 renal) was 12.5 nM and the TGI (786-0 renal) was 45.3 nM. It also gave a GI50 (K-562 leukemia) of 38.4 nM, a TGI (K-562 leukemia) of 22700 nM and a GI50 (SK-OV-3 ovarian) of 34.3 nM. For the same compound, the TGI (SK-OV-3 ovarian) was 27000 nM, the GI50 (HCT-15 colon) was 34.3 nM and the TGI (HCT-15 colon) was 13000 nM. It also gave a GI50 (U251 CNS) of 40.6 nM, a TGI (U251 CNS) of 30100 nM and a GI50 (OVCAR-4 ovarian) of 37.3 nM. For the same compound, the TGI (OVCAR-4 ovarian) was 9480 nM, the GI50 (SF-539 CNS) was 53.2 nM and the TGI (SF-539 CNS) was > 66500 nM. For the same compound, the GI50 (A549 NSCLC) was 40.8 nM, the TGI (A549 NSCLC) was > 100000 nM and the GI50 (A498 renal) was < 11.8 nM. For the same compound, the TGI (A498 renal) was 40.9 nM, the GI50 (KM12 colon) was < 10 nM and the TGI (KM12 colon) was 26.3 nM. The GI50 (M14 melanoma) was 26.4 nM, the TGI (M14 melanoma) was 10700 nM and the GI50 (COLO 205 colon) was 19.7 nM. For the same compound, the TGI (COLO 205 colon) was 36.9 nM, the GI50 (HCT-116 colon) was 23.1 nM and the TGI (HCT-116 colon) was 54.9 nM. It also gave a GI50 (SW-620 colon) of 28.7 nM, a TGI (SW-620 colon) of 84.7 nM and a GI50 (HOP-92 NSCLC) of 31 nM. For the same compound, the TGI (HOP-92 NSCLC) was 396 nM, the GI50 (MALME-3M melanoma) was 23.1 nM and the TGI (MALME-3M melanoma) was 85.4 nM. For the same compound, the GI50 (ACHN renal) was 37.1 nM, the TGI (ACHN renal) was > 100000 nM and the GI50 (NCI-H522 lung) was 41.2 nM. It also gave a TGI (NCI-H522 lung) of 200 nM, a GI50 (OVCAR-3 ovarian) of 25.4 nM and a TGI (OVCAR-3 ovarian) of 61.1 nM. For the same compound, the GI50 (NCI/ADR-RES ovarian) was 28.9 nM, the TGI (NCI/ADR-RES ovarian) was 823 nM and the GI50 (SK-MEL-28 melanoma) was < 10 nM. For the same compound, the TGI (SK-MEL-28 melanoma) was 45.6 nM, the GI50 (RPMI-8226 leukemia) was 41.4 nM and the TGI (RPMI-8226 leukemia) was 5310 nM. The GI50 (CCRF-CEM leukemia) was 39.1 nM, the TGI (CCRF-CEM leukemia) was > 59400 nM and the GI50 (T-47D breast) was 48.3 nM. For the same compound, the TGI (T-47D breast) was 30700 nM, the GI50 (SK-MEL-5 melanoma) was < 10 nM and the TGI (SK-MEL-5 melanoma) was 16.8 nM. The GI50 (CAKI-1 renal) was 36.1 nM, the TGI (CAKI-1 renal) was 3650 nM and the GI50 (IGROV1 ovarian) was 40.2 nM.

Reference: PubChem BioAssay (NCI)
